Test [1] has as its target Cell division cycle 7-related protein kinase (Homo sapiens, UniProt O00311). As to the kind of experiment: Inhibition of Cdc7-mediated phosphorylation of Mcm2.
A further test relates to A2780. As to the kind of experiment: Antiproliferative activity against human A2780 cells after 72 hrs by firefly luciferase assay. In kind it is functional, cell-based. Particulars: A2780, 72 h.
Another test deals with CDK9/cyclin T1 (Homo sapiens, UniProt P50750). As to the kind of experiment: Inhibition of Cdk9/cyclinT. In kind it is protein-complex assay.
Test [2] concerns the target Cyclin-dependent kinase 2 (Homo sapiens, UniProt P24941). As to the kind of experiment: Inhibition of Cdk2/cyclinA.
The target in test [3] is cAMP-dependent protein kinase catalytic subunit alpha (Homo sapiens, UniProt P17612). As to the kind of experiment: Inhibition of PKAalpha.

pIC50: −log10 of the molar value. Bounds are passed on as bounds.

Chain of CDK9/cyclin T1 (O60563 whole entry): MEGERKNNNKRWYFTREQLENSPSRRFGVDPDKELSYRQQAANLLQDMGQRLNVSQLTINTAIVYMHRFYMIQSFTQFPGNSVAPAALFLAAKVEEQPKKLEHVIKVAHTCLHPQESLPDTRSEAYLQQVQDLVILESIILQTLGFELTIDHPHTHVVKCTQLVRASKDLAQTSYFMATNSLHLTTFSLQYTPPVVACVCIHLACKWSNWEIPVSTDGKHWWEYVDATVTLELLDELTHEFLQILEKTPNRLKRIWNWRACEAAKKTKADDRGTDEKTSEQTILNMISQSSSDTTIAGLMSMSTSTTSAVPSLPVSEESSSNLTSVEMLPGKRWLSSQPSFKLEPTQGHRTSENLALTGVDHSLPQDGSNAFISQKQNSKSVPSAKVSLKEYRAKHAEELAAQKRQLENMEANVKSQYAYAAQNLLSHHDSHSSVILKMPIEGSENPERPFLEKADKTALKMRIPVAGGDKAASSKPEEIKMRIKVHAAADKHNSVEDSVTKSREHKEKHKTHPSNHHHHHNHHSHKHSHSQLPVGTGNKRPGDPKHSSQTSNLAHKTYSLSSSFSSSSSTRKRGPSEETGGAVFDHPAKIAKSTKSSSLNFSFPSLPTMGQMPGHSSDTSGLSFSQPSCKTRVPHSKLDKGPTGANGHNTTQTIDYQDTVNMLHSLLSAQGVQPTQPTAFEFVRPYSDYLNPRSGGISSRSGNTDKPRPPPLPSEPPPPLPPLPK
Chain of CDK9/cyclin T1 (P50750 whole entry): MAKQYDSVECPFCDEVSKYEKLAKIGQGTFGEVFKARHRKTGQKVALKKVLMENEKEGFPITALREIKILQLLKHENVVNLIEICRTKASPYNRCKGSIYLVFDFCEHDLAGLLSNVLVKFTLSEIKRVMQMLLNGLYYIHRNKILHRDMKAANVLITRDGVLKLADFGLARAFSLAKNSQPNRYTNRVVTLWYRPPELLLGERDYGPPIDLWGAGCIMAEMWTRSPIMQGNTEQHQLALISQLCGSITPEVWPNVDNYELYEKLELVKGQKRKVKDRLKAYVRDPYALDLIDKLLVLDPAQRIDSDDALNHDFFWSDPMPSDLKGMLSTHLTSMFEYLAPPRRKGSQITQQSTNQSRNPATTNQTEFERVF
Chain of Cell division cycle 7-related protein kinase (O00311 whole entry): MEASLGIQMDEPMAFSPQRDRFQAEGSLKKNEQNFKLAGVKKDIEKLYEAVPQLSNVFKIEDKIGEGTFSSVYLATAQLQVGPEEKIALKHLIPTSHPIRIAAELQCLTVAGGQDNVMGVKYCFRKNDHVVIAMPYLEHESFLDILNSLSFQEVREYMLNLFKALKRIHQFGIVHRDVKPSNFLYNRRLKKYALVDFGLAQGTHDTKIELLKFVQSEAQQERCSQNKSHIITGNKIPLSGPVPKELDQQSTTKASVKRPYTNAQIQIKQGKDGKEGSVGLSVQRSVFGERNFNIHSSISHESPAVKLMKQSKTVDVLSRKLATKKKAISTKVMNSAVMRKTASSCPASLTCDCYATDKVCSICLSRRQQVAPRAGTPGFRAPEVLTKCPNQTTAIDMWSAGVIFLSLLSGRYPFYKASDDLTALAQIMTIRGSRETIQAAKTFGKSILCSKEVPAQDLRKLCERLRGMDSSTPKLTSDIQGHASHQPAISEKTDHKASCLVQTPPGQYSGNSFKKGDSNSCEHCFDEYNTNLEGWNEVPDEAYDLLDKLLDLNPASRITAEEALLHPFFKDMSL

The compound `Cc1cccc(C2=N/C(=C\c3c[nH]c4ncccc34)C(=O)N2)c1` had a pIC50 in test [1] of 7.52.
The same measure, in the same setting: the same measure for `CC(=O)Nc1cnc2[nH]cc(/C=C3\N=C(NCc4ccccc4)NC3=O)c2c1`: 6.94.
Take `O=C1NC(NCc2cccc(Cl)c2)=N/C1=C\c1c[nH]c2ncccc12`: the pIC50 in test [1] is 7.41.
The same measure, in the same setting: the same measure for `O=C1NC(NCC23CC4CC(CC(C4)C2)C3)=N/C1=C\c1c[nH]c2ncccc12`: 6.89; for `CC1CCN(C2=N/C(=C\c3c[nH]c4ncccc34)C(=O)N2)CC1`: 6.98.
For the compound `O=C1NC(NCC2CCCO2)=N/C1=C\c1c[nH]c2ncccc12` (stereo not given), the pIC50 in test [1] is 7.68.
In the case of `CC(C)(C)CCNC1=N/C(=C\c2c[nH]c3ncccc23)C(=O)N1`, in test [1], the pIC50 is 7.62.
Still for that read-out and setting: as for `O=C1NC(NCc2ccccc2)=N/C1=C/c1c[nH]c2ncc([N+](=O)[O-])cc12`, the figure is less than 5.00.
Still for that read-out and setting: the same measure for `O=C1NC(NCc2cccs2)=N/C1=C\c1c[nH]c2ncccc12`: 7.74; for `O=C1NC(NC2CC2)=N/C1=C\c1c[nH]c2ncccc12`: 7.48.
Still for that read-out and setting: as for `O=C1NC(c2ccccc2)=N/C1=C\c1c[nH]c2ncccc12`, the figure is 7.30.
`CC(C)NC1=NC(=O)/C(=C/c2c[nH]c3ncccc23)S1`: the negative-log IC50 (pIC50) in test [1] is 8.00; in the test with A2780, 6.00.
For `O=C1N=C(NCc2ccco2)S/C1=C\c1c[nH]c2ncccc12` the same measures were 8.40 and 5.92.
In test [1], `O=C1NC(NCc2ccc(Cl)cc2)=N/C1=C\c1c[nH]c2ncccc12` had a pIC50 of 7.07.
In the case of `Cc1ccc(CNC2=N/C(=C\c3c[nH]c4ncccc34)C(=O)N2)cc1`, the pIC50 in test [1] is 6.79.
`O=C1NC(NCCc2ccccc2)=N/C1=C\c1c[nH]c2ncccc12` showed a pIC50 in test [1] of 7.74.
Take `O=C1NC(NCc2ccco2)=N/C1=C\c1c[nH]c2ncccc12`: the pIC50 in test [1] was 7.82; in the test with A2780, 5.40.
Take `O=C1N=C(NCc2ccccc2)S/C1=C\c1c[nH]c2ncccc12`: the pIC50 in test [1] is 8.05; with A2780 it was 6.49; against CDK9/cyclin T1, 7.82; in test [2], greater than 7.30; in test [3], greater than 7.30.
Take `CC(C)NC1=N/C(=C\c2c[nH]c3ncccc23)C(=O)N1`: the pIC50 in test [1] was 7.89; in the test with A2780, 5.06.
Turning to `Nc1cnc2[nH]cc(/C=C3\N=C(NCc4ccccc4)NC3=O)c2c1`, the pIC50 in test [1] was 6.62.
On to `C[C@H](NC1=NC(=O)/C(=C/c2c[nH]c3ncccc23)S1)c1ccccc1`, for which the pIC50 in test [1] was 7.59; with A2780, 7.38.
`CCNC1=N/C(=C\c2c[nH]c3ncccc23)C(=O)N1` gave a pIC50 in test [1] of 7.35.
As for `O=C1NC(NCC2CCCCC2)=N/C1=C\c1c[nH]c2ncccc12`, the pIC50 in test [1] was 7.19.
In the case of `CC1CCC(NC2=N/C(=C\c3c[nH]c4ncccc34)C(=O)N2)CC1` (stereo not given), the pIC50 in test [1] was 7.89.
Still for that read-out and setting: the same measure for `O=C1NC(N2CCOCC2)=N/C1=C\c1c[nH]c2ncccc12`: 7.33.
Consider `O=C1NC(SCc2ccccc2)=N/C1=C\c1c[nH]c2ncccc12`, for which the pIC50 on CDK9/cyclin T1 is 5.21.
For the compound `O=C1NC(NCc2ccccc2)=N/C1=C\c1c[nH]c2ncccc12`, the pIC50 in test [1] was 7.70; with A2780, 5.92; against CDK9/cyclin T1, 7.02.
Regarding `O=C1NC(NCc2ccccc2)=N/C1=C\c1c[nH]c2ncc([N+](=O)[O-])cc12`, the pIC50 in test [1] is 6.89.
For the compound `O=C1NC(NCc2cccc(Br)c2)=N/C1=C\c1c[nH]c2ncccc12`, the pIC50 in test [1] was 7.26.
For the compound `O=C1NC(NCc2ccc(Br)cc2)=N/C1=C\c1c[nH]c2ncccc12`, the pIC50 in test [1] was 6.90.
Consider `Cc1ccc(C2=N/C(=C\c3c[nH]c4ncccc34)C(=O)N2)cc1`, for which the pIC50 in test [1] is 7.33.
On the same count and under the same terms, as for `C/C(=C1/N=C(NCc2ccccc2)NC1=O)c1c[nH]c2ncccc12`, the figure is less than 5.00.
Same read-out and setting: the same measure for `O=C1NC(NCCO)=N/C1=C\c1c[nH]c2ncccc12`: 7.43.
The same measure, in the same setting: the same measure for `O=C1NC(c2ccccc2)=N/C1=C\c1c[nH]c2ccccc12`: less than 5.00.
As to `C[C@H](NC1=N/C(=C\c2c[nH]c3ncccc23)C(=O)N1)c1ccccc1`, the pIC50 in test [1] is 7.68; in the test with A2780, 6.42.
The compound `O=C1NC(N2CCCCC2)=N/C1=C\c1c[nH]c2ncccc12` showed a pIC50 in test [1] of 7.60.
Same read-out and setting: the same measure for `CCCCCCCNC1=N/C(=C\c2c[nH]c3ncccc23)C(=O)N1`: 6.61; for `CC1CN(C2=N/C(=C\c3c[nH]c4ncccc34)C(=O)N2)CCO1` (stereo not given): 7.18.
For `CC(C)(C)C1CCC(NC2=N/C(=C\c3c[nH]c4ncccc34)C(=O)N2)CC1` (stereo not given), the pIC50 in test [1] was 6.68.
Take `O=C1NC(c2cccnc2)=N/C1=C\c1c[nH]c2ncccc12`: in test [1], the pIC50 is 7.22.
On to `CCCCCNC1=N/C(=C\c2c[nH]c3ncccc23)C(=O)N1`, for which the pIC50 in test [1] was 7.46.
Still for that read-out and setting: as for `O=C1NC(NC2CCCCC2)=N/C1=C\c1c[nH]c2ncccc12`, the figure is 7.68; as for `Cc1cccc(CNC2=N/C(=C\c3c[nH]c4ncccc34)C(=O)N2)c1`, 7.30.

Source of the values: ChEMBL document CHEMBL1137791, “Cell division cycle 7 kinase inhibitors: 1H-pyrrolo[2,3-b]pyridines, synthesis and structure-activity relationships” (J Med Chem, 2009).
